Measured values: patent US20240325398A1, “COMBINATION THERAPIES” (Infinity Pharmaceuticals, Inc., priority 2014, published 2024)

Tests used:
HH = test: Combination study, ATPLite 72 h, dose matrix (Synergy Score, CI50); assay type: cell-based; conditions: combination with Compound 1
Procedure: The method is described as follows.
Additive effect is CI=1.0. […] Antagonistic effect is CI>1.0.
The Synergy Score is calculated as: […]

HBL-1 = test: as above; conditions: combination with Compound 1, 72 h
OCI-Ly3 = test: as above; conditions: combination with Compound 1; OCI-Ly3; 72 h
Procedure: (§1) Cells are thawed from a liquid nitrogen preserved state. Once cells have been expanded and divide at their expected doubling times, screening begins. Cells are seeded in growth media in either black 1536-well or 384-well tissue culture treated plates. Cells are then equilibrated in assay plates via centrifugation and placed in incubators attached to the Dosing Modules at 37° C. for 24 hours before treatment. […] These Tzero (To) plates are read using ultra-sensitive luminescence on Envision plate readers (Perkin Elmer). Treated assay plates are incubated with compound for 72 hours. After 72 hours, plates are developed for endpoint analysis using ATPLite. All data points are collected via automated processes, quality controlled and analyzed using Zalicus software.
(§2) where T is treated cell count and V is untreated (vehicle) cell count (at 72 hours). I ranges from 0% (when T=V) to 100% (when T=0). […] The measure of effect in the experiment can be the inhibition of cellular response relative to the untreated level (vehicle alone). […] The inhibition ranges from 0% at the untreated level to 100% when T=0. Inhibition levels are negative for agents that actually increase levels. Other effect measures, such as an activity ratio r=T/V may be more appropriate for some assays. When activity ratios (e.g, fold increase over stimulated control) are being used, the effect can be measured using an induction 1=ln(T/V). With this definition, all effect expressions are the same as for inhibition.
(§3) Growth Inhibition (GI) is used as a measure of cell viability. […] A GI reading of 100% represents complete growth inhibition—T72 compound-treated and T0 vehicle signals are matched. […] A GI reading of 200% represents complete death of all cells in the culture well. Compounds reaching an activity plateau of GI 200% are considered cytotoxic. GI is calculated by applying the following test and equation:
(§4) Combination analysis data were collected in a 6×6 dose matrix. Synergy is calculated by comparing a combination's response to those of its single compound, against the drug-with-itself dose-additive reference model. Deviations from dose additivity may be assessed visually on an isobologram or numerically with a Combination Index (CI). […] Additive effect is CI=1.0. […] Antagonistic effect is CI>1.0.
(§5) To measure combination effects in excess of Loewe additivity, a scalar measure to characterize the strength of synergistic interaction termed the Synergy Score is devised. The Synergy Score is calculated as:
(§6) The fractional inhibition for each component agent and combination point in the matrix is calculated relative to the median of all vehicle-treated control wells. The Synergy Score equation integrates the experimentally-observed activity volume at each point in the matrix in excess of a model surface numerically derived from the activity of the component agents using the Loewe model for additivity. Additional terms in the Synergy Score equation (above) are used to normalize for various dilution factors used for individual agents and to allow for comparison of synergy scores across an entire experiment. The inclusion of positive inhibition gating or an Idata multiplier removes noise near the zero effect level, and biases results for synergistic interactions at that occur at high activity levels.
(§7) Loewe Volume (Loewe Vol) is used to assess the overall magnitude of the combination interaction in excess of the Loewe additivity model. Loewe Volume is particularly useful when distinguishing synergistic increases in a phenotypic activity (positive Loewe Volume) versus synergistic antagonisms (negative Loewe Volume). […] This model defines additivity as a non-synergistic combination interaction where the combination dose matrix surface should be indistinguishable from either drug crossed with itself. The calculation for Loewe additivity is:

U-2932 = test: as above; conditions: combination with Compound 1, 72 h
TMD8 = test: as above; conditions: combination with Compound 1; TMD8; 72 h
OCI-Ly7 = test: as above; conditions: combination with Compound 1, 72 h
SU-DHL-4-epst = test: as above; conditions: combination with Compound 1, 72 h
DOHH-2 = test: as above; conditions: combination with Compound 1, 72 h
Farage = test: as above; conditions: combination with Compound 1; Farage; 72 h
SU-DHL-10-epst = test: as above; conditions: combination with Compound 1, 72 h
Procedure: as §1
The measure of effect in the experiment can be the inhibition of cellular response relative to the untreated level (vehicle alone). […] The inhibition ranges from 0% at the untreated level to 100% when T=0. Inhibition levels are negative for agents that actually increase levels.
as §3, §4, §5, §6, §7

RL = test: as above; conditions: combination with Compound 1, 72 h
KARPAS-422 = test: as above; conditions: combination with Compound 1, 72 h
WSU-NHL = test: as above; conditions: combination with Compound 1, 72 h
Procedure: as §1, §2, §3, §4, §5, §6
(§8) Loewe Volume (Loewe Vol) is used to assess the overall magnitude of the combination interaction in excess of the Loewe additivity model. Loewe Volume is particularly useful when distinguishing synergistic increases in a phenotypic activity (positive Loewe Volume) versus synergistic antagonisms (negative Loewe Volume). […] This model defines additivity as a non-synergistic combination interaction where the combination dose matrix surface should be indistinguishable from either drug crossed with itself.

KARPAS-299 = test: as above; conditions: combination with Compound 1
GRANTA-519 = test: as above; conditions: combination with Compound 1
Jeko-1 = test: as above; conditions: combination with Compound 1
Procedure: as §1, §2, §3, §4, §5, §6, §8

Mino = test: as above; conditions: combination with Compound 1
NCI-H929 = test: as above; conditions: combination with Compound 1
Procedure: as §1, §2, §3, §4, §5, §6, §8

[1] = as above; conditions: combination with Compound 1; OPM-2
OMP-2 = test: as above; conditions: combination with Compound 1; OPM-2
RPMI-8226 = test: as above; conditions: combination with Compound 1

Q: Which CI50 growth inhibition (HH) does the source give for COc1ccc(-c2ccc3c(N4CCOC[C@@H]4C)nc(N4CCOC[C@@H]4C)nc3n2)cc1CO [AZD 8055] here?
A: S (S=0.01 to <0.5)

Q: And the CI50 inhibition (HH)?
A: S (S=0.01 to <0.5)

Q: And the “Synergy Score growth inhibition” value (HH)?
A: A3 (A3=>3)

Q: And the “Synergy Score inhibition” value (HH)?
A: A2 (A2=1 to <3)

Q: And the CI50 growth inhibition (HBL-1)?
A: S (S=0.01 to <0.5)

Q: What about the CI50 inhibition (HBL-1) of the same compound?
A: T (T=0.5 to <0.7)

Q: What about the “Synergy Score growth inhibition” value (HBL-1) of the same compound?
A: A3 (A3=>3)

Q: And the “Synergy Score inhibition” value (HBL-1)?
A: A1 (A1=0.0001 to <1)

Q: What about the CI50 growth inhibition (OCI-Ly3) of the same compound?
A: S (S=0.01 to <0.5)

Q: What about the CI50 inhibition (OCI-Ly3) of the same compound?
A: T (T=0.5 to <0.7)

Q: And the “Synergy Score growth inhibition” value (OCI-Ly3)?
A: A2 (A2=1 to <3)

Q: What about the “Synergy Score inhibition” value (OCI-Ly3) of the same compound?
A: A1 (A1=0.0001 to <1)

Q: What about the CI50 growth inhibition (U-2932) of the same compound?
A: S (S=0.01 to <0.5)

Q: What about the CI50 inhibition (U-2932) of the same compound?
A: U (U=0.7 to <1)

Q: What about the “Synergy Score growth inhibition” value (U-2932) of the same compound?
A: A2 (A2=1 to <3)

Q: What about the “Synergy Score inhibition” value (U-2932) of the same compound?
A: A2 (A2=1 to <3)

Q: And the CI50 growth inhibition (TMD8)?
A: S (S=0.01 to <0.5)

Q: What about the CI50 inhibition (TMD8) of the same compound?
A: S (S=0.01 to <0.5)

Q: What about the “Synergy Score growth inhibition” value (TMD8) of the same compound?
A: A3 (A3=>3)

Q: And the “Synergy Score inhibition” value (TMD8)?
A: A3 (A3=>3)

Q: And the CI50 growth inhibition (OCI-Ly7)?
A: S (S=0.01 to <0.5)

Q: And the CI50 inhibition (OCI-Ly7)?
A: T (T=0.5 to <0.7)

Q: What about the “Synergy Score growth inhibition” value (OCI-Ly7) of the same compound?
A: A3 (A3=>3)

Q: And the “Synergy Score inhibition” value (OCI-Ly7)?
A: A2 (A2=1 to <3)

Q: What about the CI50 growth inhibition (SU-DHL-4-epst) of the same compound?
A: T (T=0.5 to <0.7)

Q: And the CI50 inhibition (SU-DHL-4-epst)?
A: S (S=0.01 to <0.5)

Q: What about the “Synergy Score growth inhibition” value (SU-DHL-4-epst) of the same compound?
A: A3 (A3=>3)

Q: What about the “Synergy Score inhibition” value (SU-DHL-4-epst) of the same compound?
A: A3 (A3=>3)

Q: And the CI50 growth inhibition (DOHH-2)?
A: S (S=0.01 to <0.5)

Q: What about the CI50 inhibition (DOHH-2) of the same compound?
A: S (S=0.01 to <0.5)

Q: What about the “Synergy Score growth inhibition” value (DOHH-2) of the same compound?
A: A3 (A3=>3)

Q: What about the “Synergy Score inhibition” value (DOHH-2) of the same compound?
A: A3 (A3=>3)

Q: And the CI50 growth inhibition (Farage)?
A: S (S=0.01 to <0.5)

Q: What about the CI50 inhibition (Farage) of the same compound?
A: S (S=0.01 to <0.5)

Q: And the “Synergy Score growth inhibition” value (Farage)?
A: A3 (A3=>3)

Q: And the “Synergy Score inhibition” value (Farage)?
A: A3 (A3=>3)

Q: And the CI50 growth inhibition (SU-DHL-10-epst)?
A: S (S=0.01 to <0.5)

Q: What about the CI50 inhibition (SU-DHL-10-epst) of the same compound?
A: S (S=0.01 to <0.5)

Q: And the “Synergy Score growth inhibition” value (SU-DHL-10-epst)?
A: A3 (A3=>3)

Q: What about the “Synergy Score inhibition” value (SU-DHL-10-epst) of the same compound?
A: A3 (A3=>3)

Q: What about the CI50 growth inhibition (RL) of the same compound?
A: U (U=0.7 to <1)

Q: What about the CI50 inhibition (RL) of the same compound?
A: U (U=0.7 to <1)

Q: What about the “Synergy Score growth inhibition” value (RL) of the same compound?
A: A2 (A2=1 to <3)

Q: What about the “Synergy Score inhibition” value (RL) of the same compound?
A: A2 (A2=1 to <3)

Q: What about the CI50 growth inhibition (KARPAS-422) of the same compound?
A: S (S=0.01 to <0.5)

Q: And the CI50 inhibition (KARPAS-422)?
A: S (S=0.01 to <0.5)

Q: And the “Synergy Score growth inhibition” value (KARPAS-422)?
A: A2 (A2=1 to <3)

Q: And the “Synergy Score inhibition” value (KARPAS-422)?
A: A2 (A2=1 to <3)

Q: What about the CI50 growth inhibition (WSU-NHL) of the same compound?
A: T (T=0.5 to <0.7)

Q: What about the CI50 inhibition (WSU-NHL) of the same compound?
A: S (S=0.01 to <0.5)

Q: And the “Synergy Score growth inhibition” value (WSU-NHL)?
A: A3 (A3=>3)

Q: What about the “Synergy Score inhibition” value (WSU-NHL) of the same compound?
A: A3 (A3=>3)

Q: And the CI50 growth inhibition (KARPAS-299)?
A: W (W=≥1)

Q: What about the CI50 inhibition (KARPAS-299) of the same compound?
A: U (U=0.7 to <1)

Q: And the “Synergy Score growth inhibition” value (KARPAS-299)?
A: A1 (A1=0.0001 to <1)

Q: What about the “Synergy Score inhibition” value (KARPAS-299) of the same compound?
A: A1 (A1=0.0001 to <1)

Q: What about the CI50 growth inhibition (GRANTA-519) of the same compound?
A: T (T=0.5 to <0.7)

Q: What about the CI50 inhibition (GRANTA-519) of the same compound?
A: U (U=0.7 to <1)

Q: What about the “Synergy Score growth inhibition” value (GRANTA-519) of the same compound?
A: A2 (A2=1 to <3)

Q: What about the “Synergy Score inhibition” value (GRANTA-519) of the same compound?
A: A1 (A1=0.0001 to <1)

Q: What about the CI50 growth inhibition (Jeko-1) of the same compound?
A: S (S=0.01 to <0.5)

Q: What about the CI50 inhibition (Jeko-1) of the same compound?
A: T (T=0.5 to <0.7)

Q: What about the “Synergy Score growth inhibition” value (Jeko-1) of the same compound?
A: A3 (A3=>3)

Q: What about the “Synergy Score inhibition” value (Jeko-1) of the same compound?
A: A2 (A2=1 to <3)

Q: What about the CI50 growth inhibition (Mino) of the same compound?
A: U (U=0.7 to <1)

Q: And the CI50 inhibition (Mino)?
A: S (S=0.01 to <0.5)

Q: What about the “Synergy Score growth inhibition” value (Mino) of the same compound?
A: A2 (A2=1 to <3)

Q: And the “Synergy Score inhibition” value (Mino)?
A: A1 (A1=0.0001 to <1)

Q: And the CI50 growth inhibition (NCI-H929)?
A: W (W=≥1)

Q: What about the CI50 inhibition (NCI-H929) of the same compound?
A: T (T=0.5 to <0.7)

Q: What about the “Synergy Score growth inhibition” value (NCI-H929) of the same compound?
A: A3 (A3=>3)

Q: What about the “Synergy Score inhibition” value (NCI-H929) of the same compound?
A: A2 (A2=1 to <3)

Q: And the CI50 growth inhibition [1]?
A: U (U=0.7 to <1)

Q: What about the CI50 inhibition (OMP-2) of the same compound?
A: W (W=≥1)

Q: What about the “Synergy Score growth inhibition” value (OMP-2) of the same compound?
A: A2 (A2=1 to <3)

Q: What about the “Synergy Score inhibition” value (OMP-2) of the same compound?
A: A1 (A1=0.0001 to <1)

Q: What about the CI50 growth inhibition (RPMI-8226) of the same compound?
A: U (U=0.7 to <1)

Q: What about the CI50 inhibition (RPMI-8226) of the same compound?
A: W (W=≥1)

Q: What about the “Synergy Score growth inhibition” value (RPMI-8226) of the same compound?
A: A2 (A2=1 to <3)

Q: What about the “Synergy Score inhibition” value (RPMI-8226) of the same compound?
A: A1 (A1=0.0001 to <1)
